Assay [1] concerns ability of TGF-β to promote transcription of a Type I collagen gene. Description: Inhibition of the ability of TGF-β to promote transcription of a Type I collagen gene (COL-Luc reporter gene assay). It is filed as cell-based. As to conditions: final concentration 1 μM; TGF-β added; normal human fetal skin fibroblast transfected with COL-Luc; 40 hours; read-out: Inhibition percentage. The procedure: 1×10^8 cells of a normal human fetal skin fibroblast (Clontech, catalogue No. CC-2509) were cultured at 37° C. overnight under 5% CO2 atmosphere. After the cultured cells were washed with a sodium phosphate buffer (hereinafter, referred to as PBS) twice, 3 ml of PBS was added thereto and the cells were scraped away the wall of a vessel using a cell scraper (Nalgen, catalogue No. 179693). The scraped cells were collected by centrifugation (1,500 rpm, 4° C., 15 min), and these were suspended in 20 ml of PBS and centrifuged again. To the resulting precipitates were added 11 ml of Solution 2 and 4.8 μl of pronase of DNA Extraction Kit (Stratagene, catalogue No. 200600). After shaken at 60° C. for 1 hour, the resulting mixture was allowed to stand in ice for 10 minutes. Then, 4 ml of Solution 3 of the kit was added to the mixture. After mixed, the mixture was allowed to stand in ice for 5 minutes and then centrifuged (3,000 rpm, 4° C., 15 min) to recover a supernatant. To the recovered supernatant was added 2 μl of RNase per 1 ml of the supernatant and the mixture was allowed to stand at 37° C. for 15 minutes. To the mixture was added 2-fold volume of ethanol. After mixed, a white thread-like substance (genomic DNA) appeared and the substance was recovered. The recovered genomic DNA was washed with 70% ethanol and then air-dried. The air-dried genomic DNA was dissolved in 500 μl of 10 mM Tris-HCl, 1 mM EDTA (pH 8.0) (hereinafter, referred to as TE).
The resulting genomic DNA solution (the amount equivalent to 1 μg of genomic DNA), each 1 μl (10 pmol/μl) of an oligonucleotide consisting of the nucleotide sequence represented by SEQ ID No:1 and an oligonucleotide consisting of the nucleotide sequence represented by SEQ ID No:2, 29 μL of distilled water, 5 μl of the buffer attached to TaKaRa LA Taq (TAKARA SHUZO, catalogue No. RR002A), 5 μL of a Mg^2+ solution, 5 μL of a dNTP mixture and 0.5 μl of TaKaRa LA Taq (TAKARA SHUZO, catalogue No. RR002A) were mixed. After the resulting mixed solution was incubated at 94° C. for 5 minutes, the mixed solution was subjected to 30 cycles, in which one cycle consists of incubation at 94° C. for 1 minute, at 60° C. for 1 minute and then at 72° C. for 1 minute. The mixed solution was electrophoresed on a 2% agarose gel to recover about 0.5 kb of a DNA. The recovered DNA was treated with phenol/chloroform and then precipitated with ethanol to recover the DNA. The resulting DNA was dissolved in ultrapure water. To this solution were added 2.5 μl of NheI and 2.5 μl of HindIII, and then incubated at 37° C. for 3 hours. Then, the solution was electrophoresed on a 2% agarose gel to recover about 3.5 kb of a DNA. The recovered DNA was precipitated with ethanol to recover again the DNA (hereinafter, referred to as the collagen promoter DNA).
On the other hand, the vector pGL3 (Promega, catalogue No. E1751) having the nucleotide sequence encoding firefly luciferase was digested with NheI and HindIII, and then subjected to agarose gel electrophoresis as described above to recover about 5 kb of a DNA. The recovered DNA was precipitated with ethanol to recover the DNA again. To the recovered DNA were added 44 μl of distilled water, 5 μl of Buffer attached to Alkaline Phosphatase (TAKARA SHUZO, catalogue No. 2120A) and 1 μl of Alkaline Phosphatase (TAKARA SHUZO, catalogue No. 2120A). The mixed solution was incubated at 65° C. for 30 minutes. Then, the mixed solution was treated with phenol/chloroform twice, and precipitated with ethanol to recover the DNA (hereinafter referred to as the Luc vector DNA). Then, after about 20 ng of the collagen promoter DNA and about 20 ng of the Luc vector DNA were mixed, the same amount of a DNA Ligation kit Ver2 enzyme solution was added and this was incubated overnight at 16° C. To the mixed solution was added Escherichia coli 5Hdα (TOYOBO, catalogue No. DNA-903), this was allowed to stand in ice for 30 minutes, and then incubated at 42° C. for 45 seconds. […]
In general terms: In a reporter assay the amount or activity of a reporter protein is the signal.

Assay [2] has as its system mRNA of Type I collagen gene in renal glomerulus. The experiment in a line: mRNA of Type I collagen gene in renal glomerulus of anti-Thy-1 antibody-administered rats (improvement of chronic renal failure). In kind it is in vivo, rat. As to conditions: 15 mg/kg/day orally for 7 days in corn oil. The method, then: IgG was purified from an ascites-lyophilized powder (CEDARLANE, lot No. 05122) containing an anti-rat CD90 (Thy1.1) monoclonal antibody using MAbTrap kit (Amersham Biosciences, catalogue No. 17-1128-01).
6 ml of a binding buffer was added to 3 ml of ascites to sufficiently recover it, and this was passed through a 0.22 μm filter. The resulting solution was applied to a pre-bufferized column, and the column was then washed with 10 ml of a binding buffer. Thereafter, the column was eluted with 5 ml of an elution buffer. From washing, each 1 ml was fractionated, and the protein concentration of each fraction was measured using bovine serum albumin as a standard. A single peak was confirmed from an elution pattern, and an IgG fraction was dialyzed against a physiological saline overnight at 4° C. The protein concentration of the resulting anti-Thy-1 antibody (IgG) was calculated.
The present compounds represented by the compound numbers (28a) (hereinafter, referred to as the present compound (28a)), the present compound represented by a compound number (30a) (hereinafter, referred to as the present compound (30a)), the present compound represented by a compound number (33a) (hereinafter, referred to as the present compound (33a)), the present compound represented by a compound number (10e) (hereinafter, referred to as the present compound (10e)), the present compound represented by a compound number (18e) (hereinafter referred to as the present compound (18e)), the present compound represented by a compound number (31e) (hereinafter, referred to as the present compound (31e)) and a corn oil which is a medium were weighed. These were mixed using a mortar and a pestle to prepare a […]. Using four 7-week old male Wistar rats [Nippon Charles River] per group, 60 μg/ml of the anti-Thy-1 antibody (IgG) or a physiological saline was intravenously injected via a tail vein at 5 ml/kg. […] A dose of the present compound was 15 mg/kg/day.
On the next day of final administration, a rat reared as described in the above (2) was slaughtered by collection of whole blood, and kidneys were isolated. A whole RNA was separated from the cortex of the isolated kidney using RNeasy Mini Kit (QIAGEN, catalogue No. 74106). To 5 μl (50 ng) of the separated whole RNA were added 1 μl of 20 μM oligo dT and 4 μl of RNase-free distilled water. After the mixture was incubated at 65° C. for 5 minutes, it was immediately ice-cooled. To 10 μl of the solution were added 4 μl of 5× buffer, 2.4 μl of MgCl2, 1 μl of 10 mM dNTP, 1 μl of RNasin, 1 μl of Improm II and 0.6 μl of RNase-free distilled water (all available from Promega), and a reverse transcription reaction was performed under the condition of at 25° C. for 5 minutes, at 42° C. for 1 hour, and at 70° C. for 15 minutes.
Into 5 μl of the reverse transcription reaction solution were mixed each 2 μl of each 1.25 pmol/μl of primers represented by SEQ ID NOS: 3 and 4, 1.25 μl of a probe (FAM-ctcgccttca tgcgcctgct agc-TAMRA) for detecting DNA of a Type I collagen gene represented by SEQ ID No:5, each 0.25 μl of Rodent GAPDH primers, 0.25 μl of a Rodent GAPDH probe, 12.5 μl of TaqMan Universal PCR Master Mix (all available from Applied Biosystem) and 1.5 μl of sterilized water in a well of Optical 96-Well Reaction Plate (Applied Biosystem, catalogue No. N801-0560). As a standard, in place of 5 μl of the reverse transcription reaction solution, each 5 μl of 500, 250, 125, 62.5, 31.25, 15.625 ng/μl rat renal cortex cDNA which had been prepared in advance was used. Thereafter, using Gene Amp 7900 (Applied Biosystem), PCR was performed under the condition of at 50° C. for 5 minutes, and 40 cycles in which one cycle is at 95° C. for 15 seconds and at 60° C. for 1 minute. […]

In general, inhibition refers to the relative decrease from the control value, in per cent.

The structures appear in SMILES notation.

As for `COC(=O)COc1cccc(C=CC(=O)c2c(O)cc(C)[nH]c2=O)c1` [Compound No. (7a), 4-hydroxy-3-[3-[3-[(methoxycarbonyl)methoxy]phenyl]-1-oxo-2-propenyl]-6-methyl-2(1H)-pyridinone], the inhibition at 1 µM in assay [1] was not below 70%.

Turning to `Cc1cc(O)c(C(=O)C=Cc2cccc(OCC#N)c2)c(=O)n1C` [Compound No. (11a), 4-hydroxy-3-[3-[3-(cyanomethoxy)phenyl]-1-oxo-2-propenyl]-1,6-dimethyl-2(1H)-pyridinone], in assay [1], the inhibition at 1 µM was not below 70%. Consider `Cn1c(=O)c(C(=O)C=Cc2cccc(OCC#N)c2)c(O)c2ccccc21` [Compound No. (11e), 1-methyl-4-hydroxy-3-[3-[3-(cyanomethoxy)phenyl]-1-oxo-2-propenyl]-2(1H)-quinolinone], for which, in assay [1], the inhibition at 1 µM is not below 70%. Turning to `Cc1cc(O)c(C(=O)C=Cc2ccc(OCC#N)cc2)c(=O)[nH]1` [Compound No. (13a), 4-hydroxy-3-[3-[4-(cyanomethoxy)phenyl]-1-oxo-2-propenyl]-6-methyl-2(1H)-pyridinone], the inhibition at 1 µM in assay [1] was not below 70%. Consider `N#CCOc1ccc(C=CC(=O)c2c(O)c3ccccc3[nH]c2=O)cc1` [Compound No. (13e), 4-hydroxy-3-[3-[4-(cyanomethoxy)phenyl]-1-oxo-2-propenyl]-2(1H)-quinolinone], for which the inhibition at 1 µM in assay [1] was not below 70%.

For the compound `COCC(=O)Nc1cccc(C=CC(=O)c2c(O)cc(C)[nH]c2=O)c1` [Compound No. (18a), 4-hydroxy-3-[3-[3-(methoxyacetylamino)phenyl]-1-oxo-2-propenyl]-6-methyl-2(1H)-pyridinone], the inhibition at 1 µM in assay [1] is not below 70%. In the case of `COCC(=O)Nc1ccc(C=CC(=O)c2c(O)cc(C)[nH]c2=O)cc1` [Compound No. (20a), 4-hydroxy-3-[3-[4-(methoxyacetylamino)phenyl]-1-oxo-2-propenyl]-6-methyl-2(1H)-pyridinone], the inhibition at 1 µM in assay [1] was not below 70%.

With `COCCOC(=O)Nc1cccc(C=CC(=O)c2c(O)c3ccccc3[nH]c2=O)c1` [Compound No. (21e), 4-hydroxy-3-[3-[3-[(2-methoxyethoxy)carbonylamino]phenyl]-1-oxo-2-propenyl]-2(1H)-quinolinone], in assay [1], the inhibition at 1 µM was not below 70%. Same read-out and setting: under `COCCNC(=O)Nc1cccc(C=CC(=O)c2c(O)cc(C)[nH]c2=O)c1` [Compound No. (22a), 4-hydroxy-3-[3-[3-[(2-methoxyethyl)aminocarbonylamino]phenyl]-1-oxo-2-propenyl]-6-methyl-2(1H)-pyridinone] stands not below 70%; under `CS(=O)(=O)NC(=O)c1cccc(C=CC(=O)c2c(O)c3ccccc3[nH]c2=O)c1` [Compound No. (26e), 4-hydroxy-3-[3-[3-[(methanesulfonyl)aminocarbonyl]phenyl]-1-oxo-2-propenyl]-2(1H)-quinolinone], not below 70%.

As to `COC(=O)CNC(=O)c1cccc(C=CC(=O)c2c(O)c3ccccc3[nH]c2=O)c1` [Compound No. (28e), 4-hydroxy-3-[3-[3-[[(methoxycarbonylmethyl)amino]carbonyl]phenyl]-1-oxo-2-propenyl]-2(1H)-quinolinone], the inhibition at 1 µM in assay [1] is not below 70%.

For `COC(=O)CNC(=O)c1ccc(C=CC(=O)c2c(O)cc(C)[nH]c2=O)cc1` [Compound No. (30a), 4-hydroxy-3-[3-[4-[[(methoxycarbonylmethyl)amino]carbonyl]phenyl]-1-oxo-2-propenyl]-6-methyl-2(1H)-pyridinone], the “ability to improve chronic renal failure” value in assay [2] (Example 5, anti-Thy-1 antibody rats) was “have the ability to improve chronic renal failure”. Also, the “mRNA of collagen gene” value in assay [2] (Table 3, Type I collagen amount/GAPDH amount, renal cortex, anti-Thy-1 antibody +, Wistar rats, control group 3.4, normal group 1.9, test results p < 0.05) turned out to be 2.4. Consider `N#CCNC(=O)c1cccc(C=CC(=O)c2c(O)c3ccccc3[nH]c2=O)c1` [Compound No. (33e), 4-hydroxy-3-[3-[3-[[(cyanomethyl)amino]carbonyl]phenyl]-1-oxo-2-propenyl]-2(1H)-quinolinone], for which, in assay [1], the inhibition at 1 µM was not below 70%. Turning to `Cc1cc(O)c(C(=O)C=Cc2cccc(C(=O)NCC#N)c2)c(=O)[nH]1` [Compound No. (35a), 4-hydroxy-3-[3-[3-[(cyanomethyl)aminocarbonyl]phenyl]-1-oxo-2-propenyl]-6-methyl-2(1H)-pyridinone], in assay [1], the inhibition at 1 µM was not below 70%.

Values taken from patent publication US7989478B2, “Cinnamoyl compound and use of the same” (Sumitomo Chemical Company, Limited, priority 2003, dated 2011).
